Reference: patent US11465990B2, “Heterocyclic antiestrogens” (SUN PHARMA ADVANCED RESEARCH COMPANY LIMITED, priority 2015, dated 2022)

System: MCF-7 cells
Test: MCF-7 cell growth inhibition assay
Assay type: cell-based
Conditions: MCF-7 cells plated in presence of estradiol (1 nM), five days incubation, Presto Blue viability; for inhibition at 1 µM: Homo sapiens, MCF7, 120 h; for % inhibition: at 1 μM
Procedure: MCF-7 Cell Growth Inhibition Assay
MCF-7 cells were plated in 96 well plate in the presence of estradiol (1 nM) and incubated overnight. After 24 hours test compound was added at various concentrations and incubated for five days. On the fifth day, cell viability was evaluated using Presto Blue Cell Viability Reagent. Percentage growth inhibition was calculated as follows: 100−[(O.D. of sample)*100/O.D. of vehicle control] wherein O.D. is optical density.

CC1=C(c2cccc(O)c2)C(c2ccc(/C=C\CNCCCCCCCCF)cc2)Oc2ccc(O)cc21 (stereo not drawn) [Compound 50]
inhibition at 1 µM: 57.3%

CC1=C(c2cccc(O)c2)C(c2ccc(C#CCNCCCCCCCCF)cc2)Oc2ccc(O)cc21 (stereo not drawn) [Compound 51]
inhibition at 1 µM: 61.1%

CC1=C(c2cccc(O)c2)C(c2ccc(C#CCNCCCCCCCCCCF)cc2)Oc2ccc(O)cc21 (stereo not drawn) [Compound 52]
inhibition at 1 µM: 74.3%

CC1=C(c2cccc(O)c2)C(c2ccc(C#CCN(C)CCCCCCCCCF)cc2)Oc2ccc(O)cc21 (stereo not drawn) [Compound 53]
inhibition at 1 µM: 38.6%

CC1=C(c2cccc(O)c2)C(c2ccc(C#CCNCCCCCCCCC(F)F)cc2)Oc2ccc(O)cc21 (stereo not drawn) [Compound 54]
inhibition at 1 µM: 67.5%

CC1=C(c2cccc(O)c2)C(c2ccc(/C=C\CN3CC[C@@H](CF)C3)cc2)Oc2ccc(O)cc21 (stereo partly drawn) [Compound 55]
% inhibition: 67.1%

CC1=C(c2cccc(O)c2)C(c2ccc(C#CCN3CCC(F)(F)C3)cc2)Oc2ccc(O)cc21 (stereo not drawn) [Compound 56]
inhibition at 1 µM: 44.9%

CC1=C(c2cccc(O)c2)C(c2ccc(/C=C\CN3CCC(F)(F)C3)cc2)Oc2ccc(O)cc21 (stereo not drawn) [Compound 57]
inhibition at 1 µM: 24.3%

CC1=C(c2cccc(O)c2)C(c2ccc(/C=C/CN3CCC(F)(F)C3)cc2)Oc2ccc(O)cc21 (stereo not drawn) [Compound 58]
inhibition at 1 µM: 37.9%

CC1=C(c2cccc(O)c2)C(c2ccc(/C=C/CN3CC[C@@H](CF)C3)cc2)Oc2ccc(O)cc21 (stereo partly drawn) [Compound 59]
inhibition at 1 µM: 73.5%

CC1=C(c2cccc(O)c2)C(c2ccc(/C=C/CN3CC[C@@H](CO)C3)cc2)Oc2ccc(O)cc21 (stereo partly drawn) [Compound 60]
inhibition at 1 µM: 55%

CC1=C(c2cccc(O)c2)C(c2ccc(C#CCNCCCCOCCCCF)cc2)Oc2ccc(O)cc21 (stereo not drawn) [Compound 61]
inhibition at 1 µM: 39.3%

CC1=C(c2cccc(O)c2)C(c2ccc(/C=C\CNCCCCOCCCCF)cc2)Oc2ccc(O)cc21 (stereo not drawn) [Compound 62]
inhibition at 1 µM: 53.1%

CC1=C(c2cccc(O)c2)C(c2ccc(/C=C/CNCCCCOCCCCF)cc2)Oc2ccc(O)cc21 (stereo not drawn) [Compound 63]
inhibition at 1 µM: 41.8%

CC1=C(c2cccc(O)c2)C(c2ccc(C#CCN3CC[C@@H](CF)C3)cc2)Oc2ccc(O)cc21 (stereo partly drawn) [Compound 64]
inhibition at 1 µM: 47.2%

CC1=C(c2cccc(O)c2)C(c2ccc(/C=C/CN3CCC(C(F)(F)F)C3)cc2)Oc2ccc(O)cc21 (stereo not drawn) [Compound 65]
inhibition at 1 µM: 55.4%

CC1=C(c2cccc(O)c2)C(c2ccc(/C=C\CN3CCC(C(F)(F)F)C3)cc2)Oc2ccc(O)cc21 (stereo not drawn) [Compound 66]
inhibition at 1 µM: 12.9%

CC1=C(c2cccc(O)c2)C(c2ccc(/C=C\CN3CCC(CF)(CF)C3)cc2)Oc2ccc(O)cc21 (stereo not drawn) [Compound 67]
inhibition at 1 µM: 30.1%

CC1=C(c2cccc(O)c2)C(c2ccc(C#CCN(C)CCCCCCCCCC(F)F)cc2)Oc2ccc(O)cc21 (stereo not drawn) [Compound 69]
% inhibition: 19.8%

CC1=C(c2cccc(O)c2)C(c2ccc(/C=C/CN(C)CCCCCCCCC(F)F)cc2)Oc2ccc(O)cc21 (stereo not drawn) [Compound 70]
inhibition at 1 µM: 16.9%

CC1=C(c2cccc(O)c2)C(c2ccc(/C=C\CN(C)CCCCCCCCC(F)F)cc2)Oc2ccc(O)cc21 (stereo not drawn) [Compound 71]
inhibition at 1 µM: 56.8%

CC1=C(c2cccc(O)c2)C(c2ccc(/C=C\CN3CC[C@@H](CO)C3)cc2)Oc2ccc(O)cc21 (stereo partly drawn) [Compound 72]
inhibition at 1 µM: 31.9%

CC1=C(c2cccc(O)c2)C(c2ccc(/C=C\CN3CC[C@@H](C)C3)cc2)Oc2ccc(O)cc21 (stereo partly drawn) [Compound 75]
% inhibition: 74.4%

CC1=C(c2cccc(O)c2)C(c2ccc(/C=C/CNCCCCCCCCCF)cc2)Oc2ccc(O)cc21 (stereo not drawn) [Compound 79]
% inhibition: 64.8%

CC1=C(c2cccc(O)c2)C(c2ccc(/C=C/CNCCCCCCCCCF)cc2)Oc2ccc(O)cc21 (stereo not drawn) [Compound 80]
% inhibition: 53%

CC1=C(c2cc(O)cc(F)c2)C(c2ccc(/C=C\CN3CC[C@@H](C)C3)cc2)Oc2ccc(O)cc21 (stereo partly drawn) [Compound 81]
inhibition at 1 µM: 77.4%

CC1=C(c2cc(F)cc(F)c2)C(c2ccc(/C=C\CN3CCN(C)CC3)cc2)Oc2ccc(O)cc21 (stereo not drawn) [Compound 83]
inhibition at 1 µM: 12.9%
